Consider nine compounds from article PMC10579241, “Impact of trifluoromethyl and sulfonyl groups on the biological activity of novel aryl-urea derivatives: synthesis, in-vitro, in-silico and SAR studies” (Scientific Reports, 2023).

Holding throughout (type): cell-based
One assay deals with Bacillus mycoides. Description: microbe, parasite or virus in culture.
A further assay has as its system Escherichia coli. Kind of assay: Agar well diffusion, E. coli.
For another assay, the system named is Candida albicans. Description: Agar well diffusion, C. albicans.
The subject of assay [1] is human lung carcinoma (A549). Description: cells. The note with it: A549, 48 h, 100 μg/mL.
A further assay relates to colon cancer (HCT116). Kind of assay: cells. The note with it: Homo sapiens, HCT-116, 48 h, 100 μg/mL.
The test system of another assay is prostate cancer (PC3). Description: cells. The note with it: Homo sapiens, 48 h, 100 μg/mL.
The subject of another assay is skin cancer (A431). Description: cells. The note with it: Homo sapiens, A-431, 100 μg/mL, 48 h.
The subject of assay [2] is osteosarcoma cell line (HOS). Description: cells. The note with it: Homo sapiens, 48 h; for mortality at 100 µg/mL: 100 μg/mL.
The test system of assay [3] is pancreatic cancer cell line (PACA2). Description: cells. The note with it: Homo sapiens, PaCa-2, 48 h, 100 μg/mL.
Assay [4] has as its system hepatocellular carcinoma cell line (HePG2). Description: cells. The note with it: Homo sapiens, 48 h; for mortality at 100 µg/mL: 100 μg/mL.
Where [5] appears, read: Bacillus mycoides, read-out: Inhibition zones diameter.
The mark [6] stands for this setting: Escherichia coli, E. coli, reference antibiotic 10 mcg, read-out: Inhibition zones diameter.
[7] abbreviates: Candida albicans, C. albicans, reference antibiotic 10 mcg, read-out: Inhibition zones diameter.
Setting [8] is: Escherichia coli, read-out: Inhibition zones diameter.
Where [9] appears, read: Candida albicans, read-out: Inhibition zones diameter.

As to `CC1(C)S[C@@H]2[C@H](NC(=O)[C@H](N)c3ccccc3)C(=O)N2[C@H]1C(=O)O` [Ampicillin, reference compound], the figures for the zone of inhibition at 10 µg/disc with Bacillus mycoides (setting [5]), in the assay with Escherichia coli (setting [6]) and in the assay on Candida albicans (setting [7]) were 12 ± 0.93 mm, 20 ± 1.05 mm and 14 ± 0.25 mm, respectively.

Regarding `COc1cc(NC(=O)NS(=O)(=O)c2ccc(C)cc2)cc(OC)c1` [Compound 10, N-[(3,5-Dimethoxyphenyl)carbamoyl]-4-methylbenzenesulfonamide], the zone of inhibition at 10000 µg/mL was determined as 24 ± 0.87 mm in the assay with Bacillus mycoides (setting [5]), 22 ± 0.39 mm in the assay on Escherichia coli (setting [8]) and 21 ± 0.32 mm in the assay on Candida albicans (setting [9]). The mortality at 100 µg/mL is 34.2 ± 1.2% in assay [1]; 37.5 ± 1.12% in the assay with colon cancer (HCT116); 35.2 ± 0.89% with prostate cancer (PC3); 23.5 ± 0.97% in the assay with skin cancer (A431); 12.3 ± 1.21% in assay [2]; above 50% in assay [3].

As to `Cc1ccc(NC(=O)Nc2ccc(OC(F)(F)F)cc2)cc1` [Compound 14, 1-(p-Tolyl)-3-[4-(trifluoromethoxy)phenyl]urea], the figures for the zone of inhibition at 10000 µg/mL in the assay with Bacillus mycoides (setting [5]), in the assay on Escherichia coli (setting [8]) and with Candida albicans (setting [9]) were 15 ± 0.25 mm, 17 ± 0.81 mm and 17 ± 0.27 mm, respectively. Further, the mortality at 100 µg/mL in assay [1] came out at 38.5 ± 1.41%; with colon cancer (HCT116), 5.6 ± 0.47%; with prostate cancer (PC3) it was 45.3 ± 1.28%; in the assay on skin cancer (A431), 2.3 ± 0.66%; in assay [4] it was 65.3 ± 1.44%; in assay [2], 100%. This compound also registered a mortality at 100 µg/mL in [3] of 47.2 ± 1.47%. Further, it took 61.6 ± 0.81 µM to reach half-maximal inhibition in assay [2] (MTT) (IC50).

As for `COc1cc(NC(=O)Nc2ccc(C)cc2)cc(OC)c1` [Compound 16, 1-[3,5-Dimethoxyphenyl]-3-(p-tolyl)urea], the zone of inhibition at 10000 µg/mL in the assay on Bacillus mycoides (setting [5]) turned out to be 16 ± 0.97 mm; with Escherichia coli (setting [8]), 16 ± 0.35 mm; in the assay on Candida albicans (setting [9]), 16 ± 0.95 mm. In addition, the mortality at 100 µg/mL in assay [1] was 35.9 ± 0.7%; with colon cancer (HCT116) it was 5.9 ± 0.78%; in the assay with prostate cancer (PC3) it was 44.6 ± 0.25%; with skin cancer (A431) it was 40.3 ± 1.22%; in assay [4], 34.2 ± 0.13%; in assay [2] it was above 50%. This compound had a mortality at 100 µg/mL in assay [3] above 50%.

For the compound `Cc1ccc(NC(=O)Nc2ccccc2C(F)(F)F)cc1` [Compound 17, 1-(p-Tolyl)-3-[2-(trifluoromethyl)phenyl]urea], the results for the zone of inhibition at 10000 µg/mL in the assay with Bacillus mycoides (setting [5]), in the assay on Escherichia coli (setting [8]) and in the assay on Candida albicans (setting [9]) were 18 mm, 16 ± 0.54 mm and 15 ± 0.42 mm, respectively. Further, the mortality at 100 µg/mL in assay [1] was 7.3 ± 0.35%; in the assay on colon cancer (HCT116), 7.5 ± 0.92%; in the assay with prostate cancer (PC3), above 50%; in the assay with skin cancer (A431), 3.1 ± 1.14%; in [4], 71.2 ± 1.45%; in assay [2] it was above 50%. The mortality at 100 µg/mL in assay [3] was above 50%. The same compound displayed an IC50 in assay [4] (MTT) of 199.3 ± 0.82 µM.

For `CC[C@H]1OC(=O)[C@H](C)[C@@H](O[C@H]2C[C@@](C)(OC)[C@@H](O)[C@H](C)O2)[C@H](C)[C@@H](O[C@@H]2O[C@H](C)C[C@H](N(C)C)[C@H]2O)[C@](C)(O)C[C@@H](C)C(=O)[C@H](C)[C@@H](O)[C@]1(C)O` [Erythromycin, reference compound], the zone of inhibition at 15 µg/disc worked out at 17 ± 0.15 mm in the assay on Bacillus mycoides (setting [5]); 29 ± 2.13 mm with Escherichia coli (Escherichia coli, E. coli, reference antibiotic 15 mcg, read-out: Inhibition zones diameter); 25 mm in the assay with Candida albicans (Candida albicans, C. albicans, reference antibiotic 15 mcg, read-out: Inhibition zones diameter).

As for `CNC(C)C1CCC(N)C(OC2C(N)CC(N)C(OC3OCC(C)(O)C(NC)C3O)C2O)O1` (centres unmarked) [Gentamicin, reference compound], the zone of inhibition at 10 µg/disc came to 11 ± 0.43 mm with Bacillus mycoides (setting [5]), 12 ± 0.18 mm in the assay on Escherichia coli (setting [6]) and 12 ± 0.89 mm in the assay on Candida albicans (setting [7]).

On to `NC[C@H]1O[C@H](O[C@H]2[C@H](O)[C@@H](O[C@H]3O[C@H](CO)[C@@H](O)[C@H](N)[C@H]3O)[C@H](N)C[C@@H]2N)[C@H](N)C[C@@H]1O` [Tobramycin, reference compound], for which the results for the zone of inhibition at 10 µg/disc in the assay with Bacillus mycoides (setting [5]), with Escherichia coli (setting [6]) and in the assay with Candida albicans (setting [7]) were 10 ± 0.31 mm, 13 ± 0.22 mm and 12 ± 0.61 mm, respectively.

Regarding Colstin [reference compound], the Inhibition zones diameter in the assay with Bacillus mycoides was found to be 0 mm; in the assay with Escherichia coli (E. coli, reference antibiotic 10 mcg) it was 0 mm; with Candida albicans (C. albicans, reference antibiotic 10 mcg), 0 mm.
